Numbered stars: 1 amine (or outer) side, 2 acyl side, 3 side chain; on linkers, the order of the positions; unused ones are H or OH. Square brackets hold non-standard residues; d marks the D form. Peptide text beside a SMILES is read from it. * marks the point of attachment. γGlu = O=C(O)[C@H](CCC(=O)[*:2])N[*:1]; dPhg = N[C@@H](C(=O)O)c1ccccc1; Bn = c1ccc(C*)cc1
Experiments:
[1] = cited from earlier work
GST P1-1 = GST P1-1 (Homo sapiens, UniProt P09211); conditions: purified GST P1-1 isoenzyme; read-out: GST P1-1 inhibition IC50; cited from earlier work
[2] = tested on: hematopoietic progenitor cells in normal human peripheral blood; conditions: all three lineages; cited from earlier work
[3] = MDS clinical trial, interim results; cited from earlier work
[4] = tested on: HL-60 promyelocytic leukemia cells; conditions: in vitro; cited from earlier work
[5] = normal animals and animals depleted by cisplatin or fluorouracil; cited from earlier work
GSTπ = target: T1, GSTπ (Homo sapiens, UniProt P09211); assay: cellular GSTπ inhibition: immunoprecipitable GSTπ in HL-60 cell lysate, Western blot; type: cell-based
T1 construct: host or cells: HL-60 human promyelocytic leukemia cells
Method: RPMI 1640 medium, NuPAGE® LDS sample buffer (non-reducing lithium dodecyl sulfate buffer, Catalog # NP0007), and NuPAGE® Novex 4-12% Bis-Tris polyacrylamide gels (Catalog # NP0321) were obtained from Invitrogen, Inc., Carlsbad, Calif., U.S.A. Complete Mini protease inhibitor cocktail tablets (Catalog # 04 693 124 001) were obtained from Roche Diagnostics, Inc., Indianapolis, Ind., U.S.A., and were used according to package directions. Lysis buffer (50 mM Tris, pH 8.0, 120 mM NaCl, 0.5% NP-40, and 100 mM NaF) was prepared at Telik, Inc., and the protease inhibitors added shortly before use.
HL-60 cells were seeded at 6×10^5 cells/mL in 20 mL RPMI 1640 medium supplemented with 10% fetal bovine serum, 1 mM L-glutamine and 20 μM gentamycin in each of six T75 flasks, and incubated at 37° C. overnight in a 5% CO2 atmosphere. […] The contents of each flask were then treated as follows: the cells were pelleted by centrifugation and the cell pellet washed twice with phosphate-buffered saline. The cells were then lysed by suspending the pellet in 1 mL lysis buffer, and incubating with gentle agitation at 4° C. for 30 minutes. The cell lysate was cleared by centrifugation at 13,000 rpm for 10 minutes, and the protein content of the lysate was measured using the Bio-Rad protein assay kit. Cell lysate containing 1 mg total proteins was incubated at 4° C. overnight with 4.2 μg of purified mouse monoclonal anti-human GSTπ antibody in 1 mL total volume. Protein A/G agarose beads, 50 μL, were added to the mixture and incubated at 4° C. for 1 hour. The beads were collected by centrifugation, washed three times in lysis buffer, and resuspended in 10 μL 1× non-reducing lithium dodecyl sulfate buffer, and the suspension heated at 95° C. for 5 minutes. The proteins from the six cell lysates, together with a molecular weight marker, were then separated by electrophoresis on a 4-12% Bis-Tris gel and transferred to a nitrocellulose membrane. […] The GSTπ protein bands were visualized and the summed intensities of the GST P1-1 dimer and GST P1 monomer bands quantitated on an Odyssey infrared scanner.

[6] = HL-60 cells, 1-40 μM, two hours

T1 sequence (P09211 2-210 limits assumed): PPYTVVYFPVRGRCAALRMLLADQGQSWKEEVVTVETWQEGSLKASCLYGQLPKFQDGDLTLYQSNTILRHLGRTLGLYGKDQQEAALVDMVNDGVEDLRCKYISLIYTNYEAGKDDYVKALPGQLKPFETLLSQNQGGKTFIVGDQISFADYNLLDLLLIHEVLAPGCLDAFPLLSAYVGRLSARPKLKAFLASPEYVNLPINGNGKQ
Sequence of GST P1-1 (P09211 2-210 limits assumed, species assumed): as the sequence (P09211 2-210 limits assumed) above

**Q.** What does the source list for `N[C@@H](CCC(=O)N[C@@H](CSCc1ccccc1)C(=O)N[C@@H](C(=O)O)c1ccccc1)C(=O)O` [TLK117, L-γ-glutamyl-S-(phenylmethyl)-L-cysteinyl-D-phenylglycine] (γGlu-Cys(Bn)-[dPhg]-OH)?
**A.** permeability through cell membrane [1]: poor permeability; IC50 (GST P1-1): ~400 nM

**Q.** For `CCOC(=O)[C@@H](N)CCC(=O)N[C@@H](CSCc1ccccc1)C(=O)N[C@@H](C(=O)OCC)c1ccccc1` [TLK199], which “colony formation of hematopoietic progenitor cells” value [2] is on record?
**A.** stimulate colony formation

**Q.** And the hematologic response [3]?
**A.** multilineage hematologic improvement

**Q.** And the tolerability [3]?
**A.** well tolerated

**Q.** What about the “differentiation of HL-60 cells” value [4] of the same compound?
**A.** induce the differentiation

**Q.** What about the “white blood cell production” value [5] of the same compound?
**A.** increase white blood cell production

**Q.** And the IC50 (GST P1-1)?
**A.** > 200000 nM

**Q.** What about the inhibition at 20 µM (GSTπ; HL-60, 20 μM) of the same compound?
**A.** ~90%

**Q.** What about the “cellular GSTπ inhibition (amounts of immunoprecipitable GST P1 and GST P1-1 vs DMSO control)” value (GSTπ; [6]) of the same compound?
**A.** is a cellular GSTπ inhibitor

**Q.** What about the “concentration dependence of cellular GSTπ inhibitory effect” value (GSTπ; [6]) of the same compound?
**A.** concentration dependent
